The values that follow come from patent US12661410B2, “Compounds for targeted degradation of RET” (C4 Therapeutics, Inc., priority 2020, dated 2026).

Assay [1] concerns the target T1, RET (658-1114) (Homo sapiens, UniProt P07949).
T1 construct: 658-1114; expressed in transfected cells; host or cells: 293T.144 (293T cells, generated in-house)
T1 sequence (P07949 658-1114): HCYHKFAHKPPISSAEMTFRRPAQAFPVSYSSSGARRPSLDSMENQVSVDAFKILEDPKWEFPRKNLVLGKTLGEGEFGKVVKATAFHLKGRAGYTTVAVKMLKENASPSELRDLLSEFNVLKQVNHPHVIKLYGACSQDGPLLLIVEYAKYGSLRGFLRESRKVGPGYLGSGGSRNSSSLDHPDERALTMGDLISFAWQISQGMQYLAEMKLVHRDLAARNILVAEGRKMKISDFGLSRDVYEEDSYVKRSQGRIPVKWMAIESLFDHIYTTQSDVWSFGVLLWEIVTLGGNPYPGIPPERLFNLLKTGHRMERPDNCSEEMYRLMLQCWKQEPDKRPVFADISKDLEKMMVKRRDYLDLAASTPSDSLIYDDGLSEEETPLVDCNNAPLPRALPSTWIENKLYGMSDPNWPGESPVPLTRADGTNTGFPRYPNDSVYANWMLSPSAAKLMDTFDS
Nature of the assay: HiBiT-Degradation, RET wild-type degradation assay (Nano-Glo HiBiT Lytic), 293T.144 cells. The note with it: for Emax / DC50: 6.0 hours; for Emax: % remaining protein, read-out: 293T.144 RET (658-1114) 6.0 hours (Emax); for DC50: half-maximal degradation concentration, read-out: 293T.144 RET (658-1114) 6.0 hours (DC50). Type of assay: cell-based. A digest of the protocol:
(§1)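 HEK293T lines stably expressing HiBiT-tagged RET kinase domain (WT: 293T.144; G810R: 293T.165) were treated with degraders for 6 h in duplicate, 11-point half-log series from 10 μM top dose. Lysis with Nano-Glo HiBiT Lytic reagent, luminescence read; DC50 and Emax (% remaining protein) derived from dose-response curves.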

The target of assay [2] is T2, RET(KD: 658-1114 G810R) (Homo sapiens, UniProt P07949, G810R).
T2 construct: 658-1114; expressed in transfected cells; host or cells: 293T.165 (293T cells, generated in-house)
T2 sequence (P07949 658-1114 G810R): T1 sequence (P07949 658-1114) with G153R
Nature of the assay: HiBiT-Degradation, RET G810R degradation assay (Nano-Glo HiBiT Lytic), 293T.165 cells. Type of assay: cell-based. The following applies: for Emax / DC50: 6.0 hours; for Emax: % remaining protein, read-out: 293T.165 RET(KD: 658-1114 G810R) 6.0 hours (Emax); for DC50: half-maximal degradation concentration, read-out: 293T.165 RET(KD: 658-1114 G810R) 6.0 hours (DC50). In a few lines: as §1

SMILES strings stand for the structures. Residue numbers refer to the chain shown, from its start.

`CCC1(C(=O)NC2CCC2)CCN(c2ccc(-c3nc(-c4cnn([C@H]5CC[C@H](N6CCC(c7ccc(N[C@H]8CCC(=O)NC8=O)cc7Cl)CC6)CC5)c4)cn4ncc(C#N)c34)cn2)CC1` (single isomer, unassigned) [Compound 130]: in assay [1], the “293T.144 RET (658-1114) 6.0 hours (IP) [nM]” value (“293T.144 RET” for short) is given as “++++ (<50 nM = ++++)”, the Emax is under 30% and the DC50 was under 50 nM. Further, in assay [2], the “293T.165 RET(KD: 658-1114 G810R) 6.0 hours (IP) [nM]” value is given as “++++ (<50 nM = ++++)”, the Emax was under 30% and the DC50 is under 50 nM.
With `CCC1(C(=O)NC2CCC2)CCN(c2ccc(-c3nc(-c4cnn([C@H]5CC[C@H](N6CCC(c7ccc(N[C@@H]8CCC(=O)NC8=O)cc7Cl)CC6)CC5)c4)cn4ncc(C#N)c34)cn2)CC1` (single isomer, unassigned) [Compound 131], in assay [1], the “293T.144 RET” value is “++++ (<50 nM = ++++)”, the Emax was under 30% and the DC50 is under 50 nM. Further, in assay [2], the “293T.165 RET(KD: 658-1114 G810R) 6.0 hours (IP) [nM]” value is “++++ (<50 nM = ++++)”, the Emax was under 30% and the DC50 was under 50 nM.
Regarding `CCC1(C(=O)NC2CCC2)CCN(c2ccc(-c3nc(-c4cnn([C@H]5CC[C@H](N6CCC(c7ccc(NC8CCC(=O)NC8=O)cc7Cl)CC6)CC5)c4)cn4ncc(C#N)c34)cn2)CC1` (single isomer, unassigned) [Compound 133, 1-[5-[6-[1-[4-[4-[2-chloro-4-[(2,6-dioxo-3-piperidyl)amino]phenyl]-1-piperidyl]cyclohexyl]pyrazol-4-yl]-3-cyano-pyrazolo[1,5-a]pyrazin-4-yl]-2-pyridyl]-N-cyclobutyl-4-ethyl-piperidine-4-carboxamide], in assay [1], the Emax is under 30% and the DC50 is under 50 nM. Also, in assay [2], the Emax is under 30% and the DC50 was under 50 nM.
Take `CCC1(C(=O)NC2CCC2)CCN(c2ccc(-c3nc(-c4cnn([C@H]5CC[C@H](N6CCN(c7cc(OC)c(N[C@H]8CCC(=O)NC8=O)cc7F)CC6)CC5)c4)cn4ncc(C#N)c34)cn2)CC1` (single isomer, unassigned) [Compound 134]: in assay [1], the “293T.144 RET” value is listed as “++++ (<50 nM = ++++)”, the Emax is under 30% and the DC50 was under 50 nM. In addition, in assay [2], the “293T.165 RET(KD: 658-1114 G810R) 6.0 hours (IP) [nM]” value is “++++ (<50 nM = ++++)”, the Emax was under 30% and the DC50 was under 50 nM.
Regarding `CCC1(C(=O)NC2CCC2)CCN(c2ccc(-c3nc(-c4cnn([C@H]5CC[C@H](N6CCN(c7cc(OC)c(N[C@@H]8CCC(=O)NC8=O)cc7F)CC6)CC5)c4)cn4ncc(C#N)c34)cn2)CC1` (single isomer, unassigned) [Compound 135], in assay [1], the “293T.144 RET” value is given as “++++ (<50 nM = ++++)”, the Emax is under 30% and the DC50 was under 50 nM. Further, in assay [2], the “293T.165 RET(KD: 658-1114 G810R) 6.0 hours (IP) [nM]” value is “++++ (<50 nM = ++++)”, the Emax is under 30% and the DC50 is under 50 nM.
As for `CCC1(C(=O)NC2CCC2)CCN(c2ccc(-c3nc(-c4cnn([C@H]5CC[C@H](N6CCN(c7c(F)cc(N[C@H]8CCC(=O)NC8=O)cc7F)CC6)CC5)c4)cn4ncc(C#N)c34)cn2)CC1` (single isomer, unassigned) [Compound 136], in assay [1], the “293T.144 RET” value is listed as “++++ (<50 nM = ++++)”, the Emax was under 30% and the DC50 is under 50 nM. Moreover, in assay [2], the “293T.165 RET(KD: 658-1114 G810R) 6.0 hours (IP) [nM]” value was “++++ (<50 nM = ++++)”, the Emax was under 30% and the DC50 is under 50 nM.
With `CCC1(C(=O)NC2CCC2)CCN(c2ccc(-c3nc(-c4cnn([C@H]5CC[C@H](N6CCN(c7c(F)cc(N[C@@H]8CCC(=O)NC8=O)cc7F)CC6)CC5)c4)cn4ncc(C#N)c34)cn2)CC1` (single isomer, unassigned) [Compound 137], in assay [1], the “293T.144 RET” value is “++++ (<50 nM = ++++)”, the Emax was under 30% and the DC50 was under 50 nM. In assay [2], the “293T.165 RET(KD: 658-1114 G810R) 6.0 hours (IP) [nM]” value was “++++ (<50 nM = ++++)”, the Emax was under 30% and the DC50 is under 50 nM.
`CCC1(C(=O)NC2CCC2)CCN(c2ccc(-c3nc(-c4cnn([C@H]5CC[C@H](N6CCC(c7ccc8c(N9CCC(=O)NC9=O)nn(C)c8c7F)CC6)CC5)c4)cn4ncc(C#N)c34)cn2)CC1` (single isomer, unassigned) [Compound 138, 1-(5-(3-Cyano-6-(1-((1r, 4r)-4-(4-(3-(2,4-dioxotetrahydropyrimidin-1(2H)-yl)-7-fluoro-1-methyl-1H-indazol-6-yl)piperidin-1-yl)cyclohexyl)-1H-pyrazol-4-yl)pyrazolo[1,5-a]pyrazin-4-yl)pyridin-2-yl)-N-cyclobutyl-4-ethylpiperidine-4-carboxamide]: in assay [1], the “293T.144 RET” value is “++++ (<50 nM = ++++)”, the Emax is under 30% and the DC50 was under 50 nM. For the same compound, in assay [2], the “293T.165 RET(KD: 658-1114 G810R) 6.0 hours (IP) [nM]” value is given as “++++ (<50 nM = ++++)”, the Emax is under 30% and the DC50 is under 100 nM.
As for `CCC1(c2ncccn2)CCN(c2ccc(-c3nc(-c4cnn([C@H]5CC[C@H](N6CCC(c7ccc(N[C@H]8CCC(=O)NC8=O)cc7F)CC6)CC5)c4)cn4ncc(C#N)c34)cn2)CC1` (single isomer, unassigned) [Compound 139], in assay [1], the “293T.144 RET” value is “++++ (<50 nM = ++++)”, the Emax is under 30% and the DC50 is under 50 nM. In addition, in assay [2], the “293T.165 RET(KD: 658-1114 G810R) 6.0 hours (IP) [nM]” value is on record as “++++ (<50 nM = ++++)”, the Emax was under 30% and the DC50 was under 50 nM.
In the case of `CCC1(c2ncccn2)CCN(c2ccc(-c3nc(-c4cnn([C@H]5CC[C@H](N6CCC(c7ccc(N[C@@H]8CCC(=O)NC8=O)cc7F)CC6)CC5)c4)cn4ncc(C#N)c34)cn2)CC1` (single isomer, unassigned) [Compound 140], in assay [1], the “293T.144 RET” value is listed as “++++ (<50 nM = ++++)”, the Emax is under 30% and the DC50 is under 50 nM. In assay [2], the “293T.165 RET(KD: 658-1114 G810R) 6.0 hours (IP) [nM]” value is recorded as “++++ (<50 nM = ++++)”, the Emax was under 50% and the DC50 is under 100 nM.
Regarding `CCC1(C(=O)NC(C)(C)C)CCN(c2ccc(-c3nc(-c4cnn([C@H]5CC[C@H](N6CCC(c7ccc(N[C@H]8CCC(=O)NC8=O)cc7F)CC6)CC5)c4)cn4ncc(C#N)c34)cn2)CC1` (single isomer, unassigned) [Compound 145], in assay [1], the “293T.144 RET” value is reported as “++++ (<50 nM = ++++)”, the Emax was under 30% and the DC50 was under 50 nM. Also, in assay [2], the “293T.165 RET(KD: 658-1114 G810R) 6.0 hours (IP) [nM]” value is on record as “++++ (<50 nM = ++++)”, the Emax is under 30% and the DC50 is under 50 nM.
Turning to `CCC1(C(=O)NC(C)(C)C)CCN(c2ccc(-c3nc(-c4cnn([C@H]5CC[C@H](N6CCC(c7ccc(N[C@@H]8CCC(=O)NC8=O)cc7F)CC6)CC5)c4)cn4ncc(C#N)c34)cn2)CC1` (single isomer, unassigned) [Compound 146], in assay [1], the “293T.144 RET” value was “++++ (<50 nM = ++++)”, the Emax was under 30% and the DC50 is under 50 nM. Besides, in assay [2], the “293T.165 RET(KD: 658-1114 G810R) 6.0 hours (IP) [nM]” value is reported as “++++ (<50 nM = ++++)”, the Emax is under 30% and the DC50 was under 50 nM.
For `COc1ccc(CC2(OC)CCN(c3ccc(-c4nc(-c5cnn([C@H]6CC[C@@H](N7CCN(c8ccc(NC9CCC(=O)NC9=O)cc8F)CC7)CC6)c5)cn5ncc(C#N)c45)cn3)CC2)cn1` (single isomer, unassigned) [Compound 147, 6-(1-((1s, 4s)-4-(4-(4-((2,6-Dioxopiperidin-3-yl)amino)-2-fluorophenyl)piperazin-1-yl)cyclohexyl)-1H-pyrazol-4-yl)-4-(6-(4-methoxy-4-((6-methoxypyridin-3-yl)methyl)piperidin-1-yl)pyridin-3-yl)pyrazolo[1,5-a]pyrazine-3-carbonitrile], in assay [1], the “293T.144 RET” value is reported as “++++ (<50 nM = ++++)”, the Emax is under 30% and the DC50 was under 50 nM. In assay [2], the “293T.165 RET(KD: 658-1114 G810R) 6.0 hours (IP) [nM]” value is on record as “++++ (<50 nM = ++++)”, the Emax is under 30% and the DC50 is under 100 nM.
